Source: patent publication US20090197926A1, “BENZIMIDAZOLES AND THEIR USE FOR THE TREATMENT OF DIABETES” (priority 2006, published 2009)

Target: T1, human DGAT1 (Homo sapiens, UniProt O75907)
T1 construct: made in house; host or cells: Sf9 insect cells (recombinant baculovirus); membrane fraction
T1 sequence (O75907 1-488): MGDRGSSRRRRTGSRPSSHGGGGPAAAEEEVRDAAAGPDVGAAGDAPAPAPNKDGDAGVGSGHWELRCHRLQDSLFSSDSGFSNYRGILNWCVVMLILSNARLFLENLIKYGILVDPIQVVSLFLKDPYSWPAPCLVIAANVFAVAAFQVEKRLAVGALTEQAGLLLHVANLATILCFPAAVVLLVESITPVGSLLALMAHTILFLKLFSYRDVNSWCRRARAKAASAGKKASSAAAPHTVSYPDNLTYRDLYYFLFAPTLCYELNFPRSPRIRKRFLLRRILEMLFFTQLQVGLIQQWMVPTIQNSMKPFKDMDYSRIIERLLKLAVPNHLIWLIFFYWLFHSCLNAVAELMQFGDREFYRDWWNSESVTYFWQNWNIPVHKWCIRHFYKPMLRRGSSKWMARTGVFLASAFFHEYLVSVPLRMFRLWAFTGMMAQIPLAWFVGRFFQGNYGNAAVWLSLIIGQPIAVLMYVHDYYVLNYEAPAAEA
Experiment: Human Enzyme Assay (DGAT1 inhibition)
Format: biochemical
Details: human DGAT1 expressed in insect cell (sf9) membranes; 14C oleoyl coenzyme A, 1,2 dioleoyl-sn-glycerol, room temperature 30 minutes
Experimental: The in vitro assay to identify DGAT1 inhibitors uses human DGAT1 expressed in insect cell membranes as the enzyme source (Proc. Natl. Acad. Sci. 1998, 95, 13018-13023). Briefly, sf9 cells were infected with recombinant baculovirus containing human DGAT1 coding sequences and harvested after 48 h. Cells were lysed by sonication and membranes isolated by centrifuging at 28000 rpm for 1 h at 4° C. on a 41% sucrose gradient. The membrane fraction at the interphase was collected, washed, and stored in liquid nitrogen.
DGAT1 activity was assayed by a modification of the method described by Coleman (Methods in Enzymology 1992, 209, 98-102). Compound at 1-10 μM was incubated with 0.4 μg membrane protein, 5 mM MgCl2, and 100 μM 1,2 dioleoyl-sn-glycerol in a total assay volume of 200 μl in plastic tubes. The reaction was started by adding ^14C oleoyl coenzyme A (30 μM final concentration) and incubated at room temperature for 30 minutes. The reaction was stopped by adding 1.5 mL 2-propanol:heptane:water (80:20:2). Radioactive triolein product was separated into the organic phase by adding 1 mL heptane and 0.5 mL 0.1 M carbonate buffer pH 9.5. DGAT1 activity was quantified by counting aliquots of the upper heptane layer by liquid scintillography.

| Compound | IC50 |
| --- | --- |
| (4-{2-[5-(3,4,5-Trifluorophenylamino)[1,3,4]oxadiazol-2-yl]-1H-benzimidazol-5-yl}cyclohexyl)acetic Acid [Example 11] | 3 nM |
| O=C(O)C[C@H]1CC[C@H](c2ccc3[nH]c(-c4nnc(Nc5ccc(Cl)cc5)o4)nc3c2)CC1 [Example 7, (4-{2-[5-(4-Chlorophenylamino)[1,3,4]oxadiazol-2-yl]-1H-benzimidazol-5-yl}-cyclohexyl)acetic Acid] | 2 nM |
| O=C(O)C[C@H]1CC[C@H](c2ccc3[nH]c(-c4nnc(Nc5cccc(Cl)c5)o4)nc3c2)CC1 [Example 8, (4-{2-[5-(3-Chlorophenylamino)[1,3,4]oxadiazol-2-yl]-1H-benzimidazol-5-yl}-cyclohexyl)acetic Acid] | 8 nM |
| N#Cc1ccc(Nc2nnc(-c3nc4cc([C@H]5CC[C@H](CC(=O)O)CC5)ccc4[nH]3)o2)cc1 [Example 4, [trans-4-(2-{5-[(4-Cyanophenyl)amino]-1,3,4-oxadiazol-2-yl}-1H-benzimidazol-5-yl)cyclohexyl]acetic Acid] | 19 nM |
| O=C(O)C[C@H]1CC[C@H](c2ccc3[nH]c(-c4nnc(Nc5ccc6c(c5)OCCO6)o4)nc3c2)CC1 [Example 6, (4-{2-[5-(2,3-Dihydrobenzo[1,4]dioxin-6-ylamino)[1,3,4]oxadiazol-2-yl]-1H-benzimidazol-5-yl}cyclohexyl)acetic Acid] | 54 nM |
| O=C(O)C[C@H]1CC[C@H](c2ccc3[nH]c(-c4nnc(Nc5cccc(OCc6ccccc6)c5)o4)nc3c2)CC1 [Example 3, {trans-4-[2-(5-{[3-(Benzyloxy)phenyl]amino}-1,3,4-oxadiazol-2-yl)-1H-benzimidazol-5-yl]cyclohexyl}acetic Acid] | 6 nM |
| O=C(O)C[C@H]1CC[C@H](c2ccc3[nH]c(-c4nnc(Nc5ccc(F)c(F)c5)o4)nc3c2)CC1 [Example 2, trans-2-[4-[2-[5-[(3,4-Difluorophenyl)amino]-1,3,4-oxadiazol-2-yl]-1H-benzoimidazol-5-yl]cyclohexyl]acetic Acid] | 10 nM |
| O=C(O)C[C@H]1CC[C@H](c2ccc3[nH]c(-c4nnc(Nc5cc(F)c(F)cc5F)o4)nc3c2)CC1 [Example 1, trans-2-[4-[2-[5-[(2,4,5-Trifluorophenyl)amino]-1,3,4-oxadiazol-2-yl]-1H-benzoimidazol-5-yl]cyclohexyl]acetic Acid] | 11 nM |

Results, then the compound that gave them:

| IC50 | Compound |
| --- | --- |
| 19 nM | O=C(O)[C@H]1CC[C@@H](Oc2ccc3nc(-c4nnc(Nc5ccc(F)cc5)o4)[nH]c3c2F)CC1 [Example 15, cis-4-{4-Fluoro-2-[5-(4-fluorophenylamino)-1,3,4-oxadiazol-2-yl]-1H-benzimidazol-5-yloxy}cyclohexanecarboxylic Acid] |
| 43 nM | O=C(O)[C@H]1CC[C@H](Oc2ccc3nc(-c4nnc(Nc5cc(F)c(F)cc5F)o4)[nH]c3c2)CC1 [Example 14, trans-4-[[2-[5-[(2,4,5-Trifluorophenyl)amino]-1,3,4-oxadiazol-2-yl]-3H-benzoimidazol-5-yl]oxy]cyclohexane-1-carboxylic Acid] |
| 10 nM | O=C(O)C[C@H]1CC[C@H](c2ccc3[nH]c(-c4nnc(Nc5ccc(F)cc5)o4)nc3c2)CC1 [Example 10, (4-{2-[5-(4-Fluorophenylamino)[1,3,4]oxadiazol-2-yl]-1H-benzimidazol-5-yl}cyclohexyl)acetic Acid] |
| 23 nM | O=C(O)[C@H]1CC[C@H](Oc2ccc3nc(-c4nnc(Nc5ccc(F)cc5)o4)[nH]c3c2F)CC1 [Example 16, trans-4-{4-Fluoro-2-[5-(4-fluorophenylamino)-1,3,4-oxadiazol-2-yl]-1H-benzimidazol-5-yloxy}cyclohexanecarboxylic acid] |
| 13 nM | O=C(O)[C@H]1CC[C@@H](Oc2ccc3nc(-c4nnc(Nc5cc(F)c(F)cc5F)o4)[nH]c3c2F)CC1 [Example 17, cis-4-[[4-fluoro-2-[5-[(2,4,5-trifluorophenyl)amino]-1,3,4-oxadiazol-2-yl]-3H-benzoimidazol-5-yl]oxy]cyclohexane-1-carboxylic Acid] |
| 16 nM | O=C(O)[C@H]1CC[C@H](Oc2ccc3nc(-c4nnc(Nc5cc(F)c(F)cc5F)o4)[nH]c3c2F)CC1 [Example 18, trans-4-[[4-fluoro-2-[5-[(2,4,5-trifluorophenyl)amino]-1,3,4-oxadiazol-2-yl]-3H-benzoimidazol-5-yl]oxy]cyclohexane-1-carboxylic Acid] |
